The text below walks through data of patent US6153405A, “Lantibiotic mutants and chimeras of enhanced stability and activity, leader sequences therefor, genes encoding the same, and methods of producing and using the same” (The University of Maryland, priority 1998, dated 2000).

The subject of series [1] is Bacillus cereus spores and/or vegetative cells. Conditions: cited from earlier work.
In series [2] the test system is B. cereus T spores. Put plainly: inhibition zone (halo) assay. The class given is cell-based, Bacillus cereus. As to conditions: HPLC fractions spotted on agar, sprayed with B. cereus T spores. Here is the method: Biological activity was measured using an inhibition zone (halo) assay (ref. 21 and U.S. application Ser. No. 07/981,525 now U.S. Pat. No. 5,516,682) and a liquid culture assay (26). HPLC fractions were tested for activity by spotting 15 μL onto an agar plate (modified Medium A), incubating at 37° C. for 15 min., spraying with B. cereus T spores and incubating at 37° C. for 16 hr. Positive inhibition is defined as and was determined by a clear zone containing spores that were inhibited during outgrowth surrounded by an opaque lawn of cells derived from the spores that had become vegetative.

Series [3] has as its system B. cereus T spores. Put plainly: liquid culture assay of spore outgrowth. The class given is cell-based, Bacillus cereus. Conditions: for inhibition of spore outgrowth (inhibitory concentration): B. cereus T spores, 90 min incubation. Here is the method:
In the liquid culture assay, various concentrations of peptide were added to a suspension of B. cereus T spores in modified medium A and incubated in a rotating drum shaker at 30° C. for 90 min. The inhibitory effects were evaluated using phase contrast microscopy and a Klett-Summerson calorimeter. After incubation, cells were viewed by phase-contrast microscopy to determine their stage of outgrowth. Those cells in early stages of outgrowth (phase-dark and swollen, but only slightly elongated) were considered inhibited. Those cells that were fully elongated and/or divided were considered to be not inhibited. The inhibitory concentration is the concentration of peptide which arrests a majority of the population of spores at the stage of early outgrowth after the 90-min incubation period. Further, spore germination and outgrowth are accompanied by known changes in the optical density at 650 nm. Thus, the stage of outgrowth can be monitored and the inhibitory concentration can be confirmed using a Klett-Summerson calorimeter. Definitive determinations of the inhibitory concentration of peptide advantageously employ both phase-contrast microscopy and measurement of the optical density at 650 nm.

For series [4], the system named is B. cereus vegetative cells. The series can be described thus: liquid assay of vegetative cells (lysis by turbidity). The class given is cell-based, Bacillus cereus. As to conditions: for inhibition of vegetative cells (inhibitory concentration): amount of peptide required to reduce turbidity by 50%. Here is the method: The activity of the chimeric Nis1-11 -Sub12-32 peptide towards inhibiting B. cereus vegetative cells was also determined. Heat-shocked B. cereus T spores (150 micrograms) were added to 1% tryptone (Difco)-0.1 M Tris-phosphate buffer (2 ml) at pH 6.8. The mixture was incubated for 2 hours at 37° C. in a rotating drum shaker, whereupon all of the spores were in the vegetative state. The chimeric peptide was then added, and incubation was continued for one additional hour. Cell lysis was monitored by turbity (measured in Klett units), and the integrity of the cell was determined by phase-contrast microscopy. Relative inhibitory effectiveness was measured as the amount of inhibitory peptide required to reduce the turbity by 50%.

The nature of series [5]: stability of dehydro residues in aqueous solution by 1H NMR. The class given is physicochemical. As to conditions: D2O, pH 6.0, dark, room temperature. The protocol:
Samples for ^1 H NMR spectral analysis were dissolved in deuterated water (99.96 atom % D, Aldrich Chemical Co.), lyophilized (repeated twice) to exchange protons and dissolved in D2 O to a final concentration of 2-3 mg/mL. ^1 H NMR spectra were obtained using a Bruker AMX-500 spectrometer interfaced to an Aspect 3000 computer. Spectra were obtained at a constant temperature of 295 K, using selective solvent suppression. Data were processed using UXNMR software. Mass spectral analysis was performed by PeptidoGenic Research & Co. (Livermore, Calif.) on a Sciex API I Electrospray Mass Spectrometer which has an analysis range of over 200,000 Da with +/-0.01% accuracy, on 5 μL samples at a concentration of about 5 pmol/μL. The reported masses are those calculated as the most probable values based on the different m/z forms.
A 3 mg amount of the Nis1-11 -Sub12-32 chimera (consisting of a mixture of the Early Peak and Late Peak as defined in FIGS. 4 and 5) was dissolved in D2 O at a pH of 6.0, placed in an NMR tube (which was then closed), and incubated in aqueous solution in the dark at room temperature for 2.5 months.

[6] abbreviates: inferred through nisin from previous measurements (21, 26, 31).

Read-outs that look alike come from different tables or passages of the source. *1 amine or outer side, *2 acyl side, *3 side chain or, on linkers, in order; H or OH if unused. Where no end group is shown, it is not given here. Suc = O=C(CCC(=O)[*:2])[*:1]

Take “NL --Nis1-34: complete nisin prepeptide: nisin leader region and nisin structural region (MSTKDFNLDLVSVSKKDSGASPRITSISLCTPGCKTGALMGCNMKTATCHCSIHVSK; full-length; UniProt P13068 1-57, looked up)”: the “Secreted peptide is active” value in series [1] (prepeptide expressed in L. lactis 11454, ref. c (17)) was “yes”.

Turning to “Nis1-11 -Sub12-32: chimeric lantibiotic: nisin residues 1-11 and subtilin residues 12-32 (SEQ ID NO:5), processed by B. subtilis 168”, in series [2], the “antimicrobial activity in halo assay” value is on record as “possessed antimicrobial activity”. For the same substance, in series [2] (listed as Early Peak), the “antimicrobial activity in halo assay” value is “antimicrobial activity is associated mainly with the Early Peak”. In series [3], the “activity against spore outgrowth” value is “active” and the “inhibition of spore outgrowth (inhibitory concentration)” value is “about 0.2 μg/ml”. Besides, in series [3] (setting [6]), the “activity relative to E4I-subtilin (fold more active)” value was “about 2 fold” and the “activity relative to natural subtilin (times more active)” value was 6-8 times. In series [4], the “activity against vegetative growth” value was “active” and the “inhibition of vegetative cells (inhibitory concentration)” value is reported as “about 2 μg/ml”. For the same substance, the “change in the NMR resonances of the dehydro residues” value in series [5] (72-day incubation, mixture of Early Peak and Late Peak) is reported as “no significant change”. Moreover, the “half-life of the Dha5 residue” value in series [5] (NMR at 0, 34 and 72 days) is on record as “so long that it cannot be estimated from the 72-day time-point”.

In the case of “SL --S1-32: prepeptide: subtilin leader sequence and subtilin structural region (MSKFDDFDLDVVKVSKQDSKITPQWKSESLCTPGCVTGALQTCFLQTLTCNCKISK; full-length; UniProt P10946 1-56, looked up)”, the “Secreted peptide is active” value in series [1] (prepeptide expressed in B. subtilis 168, ref. b (21)) is “yes”; in series [1] (prepeptide expressed in B. subtilis 6633), “yes”.

In the case of nisin [reference compound], the “inhibition of spore outgrowth (inhibitory concentration)” value in series [3] was “about 0.2 μg/ml”. The “inhibition of vegetative cells (inhibitory concentration)” value in series [4] is given as “about 2 μg/ml”.

Turning to “succinylated subtilin: subtilin succinylated at its N-terminus, accumulates in late stationary phase of B. subtilis 6633 (Suc-WKSESLCTPGCVTGALQTCFLQTLTCNCKISK; cysteine pairing not given here; also: lantibiotic (post-translational modifications not placed); UniProt P10946 25-56, looked up)”, the “activity compared with normal unsuccinylated subtilin” value in series [1] (succinylated at N-terminus) is “significantly less active”.
